Experimental data from patent publication US12616203B2, “Use of 3-isoxazolidinones compounds as selective herbicides” (FMC Corporation, priority 2014, dated 2026).

Key:
common chickweed (CC) = test: Ex2 PRE greenhouse, % control; assay type: in vivo, Stellaria media; conditions: 28 DAT, g ai/ha by row: r12-40 2,4-DC 31.25/62.5/125/250/375 (3 rows each) + metazachlor 250/500/750 (cycling), r42-46 2,4-DC 31.25/62.5/125/250/375, r47-49 metazachlor 250/500/750
Procedure: Test compositions containing 2,4 DC Example 1B and metazachlor (Butisan® S, 43.1% active ingredient, BASF) and mixtures of 2-(2,4-dichlorophenyl)methyl-4,4-dimethyl-3-isoxazolidinone and metazachlor, were diluted with water to provide the appropriate test rate concentrations.
The test crops were wheat and canola (Brassica napus), the test weeds were Italian ryegrass (IR) (Lolium perenne. multiflorum), annual bluegrass (AB) (Poa annua), common lambsquarters (CL) (Chenopodium album), littleseed canarygrass (LC) (Phalaris minor), common chickweed (CC) (Stellaria media), and corn poppy (CP) (Papaver rhoeas).
For pre-emergence testing, four disposable fiber flats (6″ by 10″) for each rate of application of each herbicide solution were filled with top soil, to which seeds of each species were planted in furrows made by a template pressed on the top of the soil. The furrows were covered with soil after planting the seed and were watered well before application of the test compounds. […]
The control of weeds was evaluated in each experimental test at 21 days after treatment (DAT) for corn poppy and wheat and 28 DAT for all other species. […]
Percent control was determined by a method similar to the 0 to 100 rating system disclosed in “Research Methods in Weed Science,” 2nd ed., B. Truelove, Ed.; Southern Weed Science Society; Auburn University, Auburn, Ala., 1977.

Wild buckwheat [1] = test: Ex11 PRE 2,4-DC + clomazone, % control 28 DAT, Colby; assay type: in vivo, Polygonum convolvulus
From the text: The crop tested was Oilseed rape.
Additional treatments included applications of metazachlor (Butisan®, 43.1%) at 750 g ai/ha, napropamide (Devrinol DF®, 50%) at 1260 g, and dimethachlor (Teridox®, 48%) at 1000 g. […] Treatments were applied just after the planting of tall morningglory, wild mustard, common lambsquarters, Italian ryegrass, wild buckwheat, redroot pigweed, common chickweed, corn poppy, and oilseed rape.
Flats were watered and fertilized routinely after treatment application. Each treatment was replicated three times.

Common lambsquarters = test: Ex13 PRE 2,4-DC + diflufenican, % control 28 DAT, Colby; assay type: in vivo, Chenopodium album
From the text: (§1) Pyroxasulfone (KIH-485, 85%) at 74.3 g ai/ha, pendimethalin (Prowl 3.3EC, 37.4%) at 1200 g ai/ha, or a premix of chlorsulfuron plus metsulfuron-methyl (Report Extra, 75%) at 15.8 g ai/ha were applied as commercial standards. […] Treatments were replicated 3 times and flats were watered after planting before the treatment and lightly watered after treatment application. Thereafter flats were watered and fertilized routinely.

Blackgrass = test: Ex34 PRE 2,4-DC + napropamide, % control, Colby; assay type: in vivo, Alopecurus myosuroides; conditions: 28 DAT
From the text: (§2) Thereafter flats were watered and fertilized routinely.

Wild buckwheat [2] = test: Ex34 PRE 2,4-DC + napropamide, % control, Colby; assay type: in vivo, Polygonum convolvulus; conditions: 28 DAT
From the text: as §2

Barley = test: Ex40 POST 2,4-DC + metsulfuron-methyl, crop injury 7 DAT; assay type: in vivo
Procedure: (§3) Treatments were applied to barley and wheat crops.
(§4) Non-ionic surfactant (NIS) was added to all treatments at 0.5% v/v. All plant species were direct seeded into 3″ plastic pots using metro-mix as growth media. At treatment common lambsquarters was 1.75″, common chickweed was 2″, wild mustard was 2.25″, wild oat was 5.5″, wild buckwheat was 2-5″, Italian ryegrass was 2-3″, wheat was 5.5″ and barley was 4.5″ in height. Plants were watered well before application and not watered 24 h after application. Plants were watered and fertilized routinely after treatment application. Each treatment was replicated four times. Treated flats were placed in randomized block design in the greenhouse.

wheat = test: as above; assay type: in vivo
Procedure: as §3, §4

weeds [3] = test: Ex10 PRE greenhouse; assay type: in vivo; conditions: 28 DAT, weed and rate in the words
weeds [4] = test: Ex13 PRE greenhouse; assay type: in vivo; conditions: 28 DAT, weed and rate in the words
From the text: as §1

[5] = tested on: weeds; cotton, lentil, mung bean, bush bean, and cowpea; test: Ex33 PRE greenhouse; assay type: in vivo; conditions: rate in the words
From the text: ANTHEM® (fluthiacet-methyl, 0.69% plus pyroxasulfone, 22.61%) was included as a standard at labeled rate, Fluthiacet-methyl at 4.9 g ai/ha and pyroxasulfone at 165 g ai/ha. […] The following weeds were screened, Palmer amaranth, Pennsylvania smartweed, velvetleaf, green foxtail, morningglory, Italian ryegrass, prickly sida, and yellow nutsedge. Crops screened were cotton, lentil, mung bean, bush bean, and cowpea. […] Thereafter flats were watered and fertilized routinely.

For `CC1(C)CON(Cc2ccc(Cl)cc2Cl)C1=O` [2,4-DC, 2-(2,4-dichlorophenyl)methyl-4,4-dimethyl-3-isoxazolidinone], the “% Control CC” value (common chickweed (CC)) was 100%, the X (Wild buckwheat [1]; 2,4-DC alone 125 g ai/ha) was 10% and the X (Wild buckwheat [1]; 2,4-DC alone 170 g ai/ha) was 30%. It also gave an X (Wild buckwheat [1]; 2,4-DC alone 210 g ai/ha) of 22%, an X (Wild buckwheat [1]; 2,4-DC alone 250 g ai/ha) of 27% and an X (Common lambsquarters; 2,4-DC alone 125 g ai/ha) of 15%. It also gave an X (Common lambsquarters; 2,4-DC alone 170 g ai/ha) of 26%, an X (Common lambsquarters; 2,4-DC alone 210 g ai/ha) of 58% and an X (Common lambsquarters; 2,4-DC alone 250 g ai/ha) of 60%. For the same compound, the X (Blackgrass; 2,4-DC alone 31 g ai/ha) was 10%, the X (Blackgrass; 2,4-DC alone 63 g ai/ha) was 18% and the X (Blackgrass; 2,4-DC alone 125 g ai/ha) was 84%. It also gave an X (Blackgrass; 2,4-DC alone 250 g ai/ha) of 93%, an X (Blackgrass; 2,4-DC alone 375 g ai/ha) of 97% and an X (Wild buckwheat [2]; 2,4-DC alone 31 g ai/ha) of 10%. For the same compound, the X (Wild buckwheat [2]; 2,4-DC alone 63 g ai/ha) was 8%, the X (Wild buckwheat [2]; 2,4-DC alone 125 g ai/ha) was 8% and the X (Wild buckwheat [2]; 2,4-DC alone 250 g ai/ha) was 23%. The X (Wild buckwheat [2]; 2,4-DC alone 375 g ai/ha) was 37%, the “X (% crop injury, 2,4-DC alone)” value (Barley; POST, 2,4-DC 125 g ai/ha) was 4% and the “X (% crop injury, 2,4-DC alone)” value (Barley; POST, 2,4-DC 170 g ai/ha) was 6%. For the same compound, the “X (% crop injury, 2,4-DC alone)” value (Barley; POST, 2,4-DC 210 g ai/ha) was 8%, the “X (% crop injury, 2,4-DC alone)” value (Barley; POST, 2,4-DC 250 g ai/ha) was 14% and the “X (% crop injury, 2,4-DC alone)” value (wheat; POST, 2,4-DC 125 g ai/ha) was 5%. The “X (% crop injury, 2,4-DC alone)” value (wheat; POST, 2,4-DC 170 g ai/ha) was 14%, the “X (% crop injury, 2,4-DC alone)” value (wheat; POST, 2,4-DC 210 g ai/ha) was 17% and the “X (% crop injury, 2,4-DC alone)” value (wheat; POST, 2,4-DC 250 g ai/ha) was 31%. The “weed control in words” value (weeds [3]) was “alone at 250 g ai/ha controlled common lambsquarters”, the “weed control in words” value (weeds [4]) was “alone at all rates did not control most of the species” and the “weed control / crop safety in words” value [5] was “controlled prickly sida, at 125 g controlled green foxtail”. The “weed control / crop safety in words” value ([5]; listed as 2, 4 DC) was “applied alone PRE was safe on cotton, mung bean, bush bean, and cowpea at all rates, lentil was not safe at any rate”.
